According to patent EP4781993A1, “ANTIBACTERIAL COMPOSITION AND ANTIBACTERIAL DRUG” (Shenzhen China Resources Gosun Pharmaceuticals Co., Ltd., priority 2023, dated 2025):

How the values were obtained:
[1] = test system: KPC-2 producing Klebsiella pneumoniae; assay: Broth-microdilution MIC (CLSI M07-A11) against clinical isolates; format: cell-based; conditions: for MIC range / MIC50 / MIC90 / Mode: 12 strains; for MIC range / MIC50 / MIC90: MIC = ceftobiprole concentration (groups A2, B2, C2, D2, E2: inhibitor alone); for MIC50 / MIC90: Klebsiella pneumoniae; for MIC50: read-out: MIC50; for MIC90: read-out: MIC90; for Cumulative inhibition rate (%) / Cumulative number of strains / Number of strains: MIC >128 mg/L; for Mode: mode of MIC; for antibacterial activity: verdict in words
Text: (§1) As recommended by CLSI (Clinical and Laboratory Standards Institute) M07-A11 (2018 edition), the Broth-microdilution method is adopted to determine the minimum inhibitory concentration (MIC) of ceftobiprole and zidebactam against clinical isolates. It should be noted that, in the present disclosure, MIC50 refers to the minimum drug concentration that inhibits the growth of 50% of the tested bacteria, and MIC90 refers to the minimum drug concentration that inhibits the growth of 90% of the tested bacteria.
(§2) Antibacterial drug: ceftobiprole, manufacturer: Shenyang Sanjiu Pharmaceutical, content: 92.1%, batch number: YF/BALP141/000. Zidebactam, manufacturer: Target M01 company, batch number: 149661. Zidebactam, as described above, the English name is Zidebactam, and the chemical name is: (2S,5R)-7-oxo-2-(2-((R)-piperidine-3-carbonyl)hydrazine-1-carbonyl)-1,6-diazabicyclo[3.2.1]octan-6-yl hydrogen sulfate.
(§3) Tested strains: a total of 24 genotypic strains producing KPC or OXA β-lactamase. Specifically, the tested strains include 24 strains of Klebsiella pneumoniae, including 12 KPC-2 producing strains and 12 OXA-232 producing strains.
(§4) Quality control strains: Escherichia coli ATCC 25922, (KPC-2 producing) Klebsiella pneumoniae ATCC BAA-1705, and (NDM-1 producing) Klebsiella pneumoniae ATCC BAA-2146.
(§5) Medium: cation-adjusted Mueller-Hinton broth (CAMHB), a product of BBL Company, USA.
(§6) Inoculum size: Pure isolated colonies were adjusted with normal saline to 0.5 McFarland turbidity. After appropriate dilution, the suspension was added to the wells of a 96-well U-bottom microplate (containing 50 µL antibacterial drug solution). The inoculum size was 5 × 10^5 CFU/mL.
(§7) Culture conditions: air environment, 35°C ± 2°C, 16 to 20 hours.
(§8) Preparation of Antibacterial Drug Solution : Ceftobiprole and zidebactam were taken separately, dissolution and dilution were performed according to the antibacterial drug reference to the CLSI standards and the drug package insert, A1 to A6, a total of 6 groups of antibacterial drug solutions, were prepared, among which, group A1 was the control group containing solely the single agent ceftobiprole, and group A2 was the control group containing solely the single agent zidebactam. Different antibacterial drug solutions with ceftobiprole concentrations ranging from 128 mg/L to 0.06 mg/L were respectively included in groups A1 and A3 to A6, and different antibacterial drug solutions with zidebactam concentrations ranging from 128 mg/L to 0.06 mg/L were included in group A2. The specific concentrations within the range of 128 mg/L to 0.06 mg/L in groups A1 to A6 were respectively 128 mg/L, 64 mg/L, 32 mg/L, 16 mg/L, 8 mg/L, 4 mg/L, 2 mg/L, 1 mg/L, 0.5 mg/L, 0.25 mg/L, 0.125 mg/L, or 0.06 mg/L, respectively. Table 1. Concentrations of ceftobiprole/zidebactam contained in the antibacterial drug solutions of groups A1 to A6
(§9) Experimental results: Currently, there are no established CLSI or EUCAST breakpoints for ceftobiprole/β-lactamase inhibitor. Therefore, the antibacterial activity of ceftobiprole/β-lactamase inhibitor is evaluated in accordance with the standards for ceftobiprole. WHONET 5.6 software is used to perform statistical analysis on the results of antibacterial susceptibility test. The fractional inhibitory concentration index (FIC) for the combination of ceftobiprole and zidebactam is calculated according to Equation (1). FIC index = (MIC of drug A in combination)/(MIC of drug A alone) + (MIC of drug B in combination)/(MIC of drug B alone) [formula]
(§10) In Equation (1), drug A is ceftobiprole, and drug B is zidebactam. […] Table 2. In vitro antibacterial activity of ceftobiprole/zidebactam against the tested bacteria in Example 1 […]

[2] = test system: OXA-232 producing Klebsiella pneumoniae; assay: as above; format: cell-based; conditions: for MIC range / MIC50 / MIC90 / Mode: 12 strains; for MIC range / MIC50 / MIC90: MIC = ceftobiprole concentration (groups A2, B2, C2, D2, E2: inhibitor alone); for MIC50 / MIC90: Klebsiella pneumoniae; for Cumulative inhibition rate (%) / Cumulative number of strains / Number of strains: MIC >128 mg/L; for Mode: mode of MIC; for antibacterial activity: verdict in words
Text: as §1, §2, §3, §4, §5, §6, §7, §8, §9, §10

MIC range [1]	MIC50 [1]	MIC90 [1]	MIC range [2]	MIC50 [2]	MIC90 [2]	Compound	Cumulative inhibition rate (%) [1]	Cumulative number of strains [1]	Number of strains [1]	Mode [1]	antibacterial activity [1]	Cumulative inhibition rate (%) [2]	Cumulative number of strains [2]	Number of strains [2]	Mode [2]	antibacterial activity [2]
>128 µg/mL	> 128 µg/mL	> 128 µg/mL	>128 µg/mL	> 128 µg/mL	> 128 µg/mL	NCCN[C@H]1CC[C@H](CC(=O)N[C@H]2Cc3cccc(C(=O)O)c3OB2O)CC1 [Group D2, (R)-3-(2-((1r,4R)-4-((2-aminoethyl)amino)cyclohexyl)acetamido)-2-hydroxy-3,4-dihydro-2H-benzo[e][1,2]oxaborinine-8-carboxylic acid]	100%	12	12	>128 mg/L	no antibacterial activity	100%	12	12	>128 mg/L	no antibacterial activity
>128 µg/mL	≥ 128 µg/mL	≥ 128 µg/mL	>128 µg/mL	≥ 128 µg/mL	≥ 128 µg/mL	C[n+]1ccn(C[C@@]2(C)[C@H](C(=O)[O-])N3C(=O)C[C@H]3S2(=O)=O)n1 [Group E2, (2S,3S,5R)-3-methyl-3-[(3-methyltriazol-3-ium-1-yl)methyl]-4,4,7-trioxo-4-amino-6-thia-1-azabicyclo[3.2.0]heptane-2-carboxylate]	100%	12	12	>128 mg/L	no antibacterial activity	100%	12	12	>128 mg/L	no antibacterial activity
>128 µg/mL	–	–	>128 µg/mL	–	–	(3R,6S)-2-hydroxy-3-[[2-(2-thienyl)acetyl]amino]-1,2-oxaborinane-6-acetic acid [Group B2]	100%	12	12	>128 mg/L	no antibacterial activity	100%	12	12	>128 mg/L	no antibacterial activity
